One assay deals with HSV-1. Put plainly: Antiviral activity, HSV-1 in Vero cells, plaque method. Particulars: 90% inhibition of plaque formation. The class given is cell-based. As to the method:
An Assay Method for Antiviral Activity These complementary assay methods examine the capacity of a compound to inhibit the generation of new viruses and to inhibit the toxicity of the compound against the host cell. Toxicity indirectly decreases the generation of viruses. Thus, it is important to simultaneously conduct both assays in order to directly compare the results. The Vero cells were sown on a 96-well plate and then cultured overnight. The culture supernatant was removed, and 100 μl of 2% FBS-DMEM containing 50,000 plaque-forming units (hereinafter abbreviated as “pfu”) of HSV-1 was added. A viral solution was removed and 200 μl of 2% FBS-DMEM comprising a test compound was added. In this case, a substance to which 2% FBS-DMEM not comprising any test compound had been added was determined as a control. These infected cells were incubated in the presence of 5% CO2 at 37° C. for 20 hours, and the medium was once allowed to freeze at −80° C. The culture solution was dissolved, and the amount of viruses in the culture solution was assayed by the plaque method. The concentration of the test compound when it inhibited 90% of plaque formation relative to the control was determined to be EC 90.

The target in the next assay is T1, HSV-1 protease (Human herpesvirus 1, UniProt P10210).
T1 construct: 6xHis (N); made in house; host or cells: baculovirus expression system
The experiment in a line: Enzymatic assay for HSV-1 protease (assembly) inhibitor, fluorescence polarization. It counts as biochemical. The conditions noted are these: read-out: HSV-1 Enzyme inhibition IC50. As to the method:
An enzymatic assay method for an HSV-1 protease (assembly) inhibitor
The activity of an assembly protease was determined by fluorescence polarization. Biotin-gamma-amino butyrate-[…]-DTAF was used as a fluorescent substrate in accordance with an HSV-1 release and cleavage site. […] Changes in the sizes of fluorescent substrate molecules that increased with the use of avidin as a reaction terminator were assayed by fluorescence polarization.
The test compound was dissolved in DMF, and the resultant was diluted 5-fold with an assay buffer. 6.5 μl thereof was added to wells of a 96-well plate (a U-bottomed 96-well plate, Coster) that had previously been blocked with a blocking solution (10 mM Tris-HCl (pH 8.0), 150 mM sodium chloride, 0.05% Tween 20, 1 mg/ml of BSA). The enzyme was diluted to 21.3 μg/ml with an assay buffer (1M sodium citrate, 50 mM sodium phosphate (pH 7.4), 100 mM sodium chloride, 20% glycerol, 2 mM TCEP), and 48.5 μl of the resultant was added to each well. The plate was incubated at room temperature for 30 minutes, and 10 μl of 62.5 μg/ml substrate solution was then added to each well. The plate was incubated at room temperature for 60 minutes, and 50 μl of 2 mg/ml avidin phosphate buffer solution (50 mM sodium phosphate, 100 mM sodium chloride (pH 7.4)) was added to each well. The activity was determined in comparison with a compound without protease inhibitor using a microplate reader for fluorescence polarization.
HSV-1 protease was purified from a vaculovirus that had expressed a DNA construct encoding the reading frame for HSV-1UL26. This construct had further encoded 6 histidine residues at the amino terminus of the protease. These additional histidine residues impart affinity ligands purified by nickel-nitriloacetic acid-agarose (Qiagen). The purified protease was stored as a stock solution for a 20 mM HEPES buffer (pH 8.5, containing 20% v/v glycerin). This stock solution was diluted with an assay buffer and then used in the enzyme reaction.
In accordance with the cleavage specificity of the HSV-1 protease at the “release site” of the assembled protein, a specific substrate was synthesized (Diianni et al., J. Biol. Chem. 268, 2048 (1993)). This assembly protein-release site had the sequence • HTYLQA*SEKFKMW • , and the substrate used was biotin-gamma-amino butyrate-HTYLQA*SERFRIK-DTAF. This is a standard method for peptide synthesis, for example, as in the a method described in “The Practice of Peptide Synthesis” (Bodansky and Bodansky (1984)). The product was stored as a 2.5 mg/ml stock solution in DMF. The resultant was diluted to 62.5 μg/ml with a phosphate buffer (50 mM sodium phosphate, 100 mM sodium chloride, (pH 7.4)) immediately before its use.
An assay buffer (1M sodium citrate, 50 mM sodium phosphate (pH 7.4), 100 mM sodium chloride, 20% glycerol, 2 mM TCEP) was used to dilute a stock solution for the enzyme and that for the inhibitor.

Setting [1] is: Human alphaherpesvirus 1, 20 hours.

T1 sequence (P10210 1-247): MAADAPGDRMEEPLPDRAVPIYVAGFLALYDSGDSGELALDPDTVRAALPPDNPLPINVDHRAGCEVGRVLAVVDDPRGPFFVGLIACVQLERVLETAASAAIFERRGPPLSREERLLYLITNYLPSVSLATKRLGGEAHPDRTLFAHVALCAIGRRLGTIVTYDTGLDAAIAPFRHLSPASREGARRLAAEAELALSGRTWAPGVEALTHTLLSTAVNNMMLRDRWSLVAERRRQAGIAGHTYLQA

Consider `CCC(CC)C(=O)Nc1ccc2nc(NC(C)(C)C(=O)N(C)CCc3ccccn3)oc(=O)c2c1C` [Compound No.197, 2-Ethyl-N-(5-methyl-2-{1-methyl-1-[methyl-(2-pyridin-2-yl-ethyl)-carbamoyl]-ethylamino}-4-oxo-4H-benzo[d][1,3]oxazin-6-yl)-butylamide], for which the 90% effect concentration (EC90) (usually the concentration at which the effect reaches the 90% level) with HSV-1 (20 hours) was at least 12.5 µM. In addition, at HSV-1 protease, the IC50 (commonly the concentration that inhibits the measured activity by half) was determined as 7200 nM.
For the molecule `Cc1c(NC(=O)CCNC(=O)OC(C)(C)C)ccc2nc(NC(C)(C)C(=O)N(C)CCc3ccccn3)oc(=O)c12` [Compound No.201, [2-(5-methyl-2-{1-methyl-1-[methyl-(2-pyridin-2-yl-ethyl)-carbamoyl]-ethylamino}-4-oxo-4H-benzo[d][1,3]oxazin-6-ylcarbamoyl)-ethyl]-carbamic Acid Tert-Butyl Ester], in the assay with HSV-1 (setting [1]), the EC90 was above 12.5 µM. For the same molecule, on HSV-1 protease, the IC50 is 1100 nM.
For `Cc1c(NC(=O)CCNC(=O)OCc2ccccc2)ccc2nc(NC(C)(C)C(=O)N(C)CCc3ccccn3)oc(=O)c12` [Compound No.202, [2-(5-Methyl-2-{1-methyl-1-[methyl-(2-pyridin-2-yl-ethyl)-carbamoyl]-ethylamino}-4-oxo-4H-benzo [d][1,3]oxazin-6-ylcarbamoyl)-ethyl]-carbamic acid benzyl ester], in that order: above 12.5 µM and 500 nM.
For `Cc1c(NC(=O)CCCNC(=O)OC(C)(C)C)ccc2nc(NC(C)(C)C(=O)N(C)CCc3ccccn3)oc(=O)c12` [Compound No.203, [3-(5-Methyl-2-{1-methyl-1-[methyl-(2-pyridin-2-yl-ethyl)-carbamoyl]-ethylamino}-4-oxo-4H-benzo[d][1,3]oxazin-6-ylcarbamoyl)-propyl]-carbamic acid tert-butyl ester], in that order: above 12.5 µM and 400 nM.
Take `Cc1c(NC(=O)CCCNC(=O)OCc2ccccc2)ccc2nc(NC(C)(C)C(=O)N(C)CCc3ccccn3)oc(=O)c12` [Compound No.204, [3-(5-Methyl-2-{1-methyl-1-[methyl-(2-pyridin-2-yl-ethyl)-carbamoyl]-ethylamino}-4-oxo-4H-benzo[d][1,3]oxazin-6-ylcarbamoyl)-propyl]-carbamic acid benzyl ester]: in the assay with HSV-1 (setting [1]), the EC90 is above 12.5 µM. For the same molecule, the IC50 at HSV-1 protease amounted to 300 nM.
On to `Cc1c(NC(=O)CCNC(=O)OC(C)(C)C)ccc2nc(N[C@@H](C)C(=O)N(C)CCc3ccccn3)oc(=O)c12` [Compound No.205, [2-(5-Methyl-2-{1S-[methyl-(2-pyridin-2-yl-ethyl)-carbamoyl]-ethylamino}-4-oxo-4H-benzo[d][1,3]oxazin-6-ylcarbamoyl)-ethyl]-carbamic acid tert-butyl ester], for which the EC90 in the assay with HSV-1 (setting [1]) was above 20 µM. Further, at HSV-1 protease, the IC50 came to 2500 nM.
Regarding `Cc1c(NC(=O)CCNC(=O)OCc2ccccc2)ccc2nc(N[C@@H](C)C(=O)N(C)CCc3ccccn3)oc(=O)c12` [Compound No.206, [2-(5-Methyl-2-{1S-[methyl-(2-pyridin-2-yl-ethyl)-carbamoyl]-ethylamino}-4-oxo-4H-benzo[d][1,3]oxazin-6-ylcarbamoyl)-ethyl]-carbamic acid benzyl ester], the EC90 with HSV-1 (setting [1]) is above 12.5 µM. In addition, on HSV-1 protease, the 50% inhibitory concentration (IC50) was determined as 1100 nM.
With `Cc1c(NC(=O)CCCNC(=O)OC(C)(C)C)ccc2nc(N[C@@H](C)C(=O)N(C)CCc3ccccn3)oc(=O)c12` [Compound No.207, [3-(5-Methyl-2-{1S-[methyl-(2-pyridin-2-yl-ethyl)-carbamoyl]-ethylamino}-4-oxo-4H-benzo[d][1,3]oxazin-6-ylcarbamoyl)-propyl]-carbamic acid tert-butyl ester], the EC90 in the assay on HSV-1 (setting [1]) is above 12.5 µM. Further, the IC50 on HSV-1 protease was found to be 1100 nM.
In the assay with HSV-1 (setting [1]), `Cc1c(NC(=O)CCCNC(=O)OCc2ccccc2)ccc2nc(N[C@@H](C)C(=O)N(C)CCc3ccccn3)oc(=O)c12` [Compound No.208, [3-(5-Methyl-2-{1S-[methyl-(2-pyridin-2-yl-ethyl)-carbamoyl]-ethylamino}-4-oxo-4H-benzo[d][1,3]oxazin-6-ylcarbamoyl)-propyl]-carbamic acid benzyl ester] returned an EC90 above 12.5 µM. On HSV-1 protease, the IC50 was 200 nM.
For `Cc1c(NC(=O)CCNC(=O)c2cccs2)ccc2nc(NC(C)(C)C(=O)N(C)CCc3ccccn3)oc(=O)c12` [Compound No.209, thiophene-2-carboxylic acid [2-(5-methyl-2-{1-methyl-1-[methyl-(2-pyridin-2-yl-ethyl)-carbamoyl]-ethylamino}-4-oxo-4H-benzo[d][1,3]oxazin-6-ylcarbamoyl)-ethyl]-amide], in that order: above 12.5 µM and 900 nM.
The molecule `Cc1c(NC(=O)CCNC(=O)c2ccc(C(F)(F)F)cc2)ccc2nc(NC(C)(C)C(=O)N(C)CCc3ccccn3)oc(=O)c12` [Compound No.210, N-[2-(5-Methyl-2-{1-methyl-1-[methyl-(2-pyridin-2-yl-ethyl)-carbamoyl]-ethylamino}-4-oxo-4H-benzo[d][1,3]oxazin-6-ylcarbamoyl)-ethyl]-4-trifluoromethyl-benzamide] displayed a 90% effect concentration (EC90) with HSV-1 (setting [1]) above 12.5 µM. Also, the IC50 on HSV-1 protease amounted to 700 nM.
The molecule `CCCCc1ccc(C(=O)NCCC(=O)Nc2ccc3nc(NC(C)(C)C(=O)N(C)CCc4ccccn4)oc(=O)c3c2C)cc1` [Compound No.211, 4-Butyl-N-[2-(5-methyl-2-{1-methyl-1-[methyl-(2-pyridin-2-yl-ethyl)-carbamoyl]-ethylamino}-4-oxo-4H-benzo[d][1,3]oxazin-6-ylcarbamoyl)-ethyl]-benzamide] had an EC90 in the assay on HSV-1 (setting [1]) above 12.5 µM. Also, the IC50 on HSV-1 protease is 700 nM.
The molecule `Cc1c(NC(=O)CCCNC(=O)c2cccs2)ccc2nc(NC(C)(C)C(=O)N(C)CCc3ccccn3)oc(=O)c12` [Compound No.212, Thiophene-2-carboxylic acid [3-(5-methyl-2-{1-methyl-1-[methyl-(2-pyridin-2-yl-ethyl)-carbamoyl]-ethylamino}-4-oxo-4H-benzo[d][1,3]oxazin-6-ylcarbamoyl)-propyl]-amide] registered an EC90 in the assay with HSV-1 (setting [1]) above 12.5 µM. On HSV-1 protease, the IC50 turned out to be 300 nM.
Regarding `Cc1c(NC(=O)CCCNC(=O)c2ccc(C(F)(F)F)cc2)ccc2nc(NC(C)(C)C(=O)N(C)CCc3ccccn3)oc(=O)c12` [Compound No.213, N-[3-(5-Methyl-2-{1-methyl-1-[methyl-(2-pyridin-2-yl-ethyl)-carbamoyl]-ethylamino}-4-oxo-4H-benzo [d][1,3]oxazin-6-ylcarbamoyl)-propyl]-4-trifluoromethyl-benzamide], the EC90 with HSV-1 (setting [1]) was above 12.5 µM. Further, the IC50 on HSV-1 protease was found to be 300 nM.
In turn, `CCCCc1ccc(C(=O)NCCCC(=O)Nc2ccc3nc(NC(C)(C)C(=O)N(C)CCc4ccccn4)oc(=O)c3c2C)cc1` [Compound No.214, 4-Butyl-N-[3-(5-methyl-2-{1-methyl-1-[methyl-(2-pyridin-2-yl-ethyl)-carbamoyl]-ethylamino}-4-oxo-4H-benzo[d][1,3]oxazin-6-ylcarbamoyl)-propyl]-benzamide] came in with an EC90 in the assay with HSV-1 (setting [1]) above 12.5 µM. Besides, on HSV-1 protease, the half-inhibitory concentration (IC50) turned out to be 300 nM.
`Cc1c(NC(=O)CCNC(=O)c2cccs2)ccc2nc(N[C@@H](C)C(=O)N(C)CCc3ccccn3)oc(=O)c12` [Compound No.215, Thiophene-2-carboxylic acid [2-(5-methyl-2-{1S-[methyl-(2-pyridin-2-yl-ethyl)-carbamoyl]-ethylamino}-4-oxo-4H-benzo[d][1,3]oxazin-6-ylcarbamoyl)-ethyl]-amide] registered an EC90 in the assay with HSV-1 (setting [1]) above 12.5 µM. The IC50 on HSV-1 protease was 3200 nM.
